Results reported in patent US20260256714A1 (priority 2022, published 2026).

Key:
[1] = system: 3T3-L1 cells; assay: Oil Red O staining of MDI-differentiated 3T3-L1 preadipocytes (fat accumulation); format: cell-based; conditions: 0.5 or 1 μM every 48 hours, 6 days of MDI differentiation
Description: To differentiate 3T3-L1 cells grown to a confluent state into adipocytes, they were cultured in DMEM medium supplemented with MDI {0.5 mM isobutyl-methylxanthine, 1 μM dexamethasone, and 5 μg/mL insulin} for 48 h, then cultured in DMEM medium supplemented with 5 μg/mL insulin for 48 h, and then cultured in a medium containing 10% fetal bovine serum for 48 h.
The cells were incubated for a total of 6 days, and the cultures were removed at which point differentiation was complete, followed by Oil Red O staining. The cells were fixed with 35 to 40% formaldehyde for 15 minutes, washed with PBS, and stained with Oil Red O solution for 20 minutes. After completion of staining, the cells were washed four times with PBS, dissolved in isopropanol (2-propanol), and O.D. values were measured at 515 nm.

[2] = system: intracellular glucocorticoid receptor; assay: luciferase assay in GR-GAL4 Reporter (Luc)-HEK293 cells; format: cell-based; conditions: different concentrations, 1 hour before dexamethasone 20 nM, 24 hours incubation
Description: In this Example, transfected cells GR-GAL4 Reporter (Luc)-HEK293 (BPS Bioscience, USA) containing a recombinant gene in which luciferase is recombined into the promoter site of GRE were used. Transformed cells were seeded at 30,000 cells per well in 96 wells and stabilized for 16 hours. […] After 1 hour, the cells were treated with dexamethasone, a glucocorticoid agonist, at a concentration of 20 nM and incubated for 24 hours. 100 μL of ONE-STEP™ Luciferase Assay System (BPS Bioscience, USA) was added per well and reacted for 10 minutes, and then luminescence was measured using SpectraMax iD3 (Molecular Devices, USA).

[3] = biological target: T1, glucocorticoid receptor (Homo sapiens, UniProt P04150); assay: fluorescence polarization competition assay (POLARSCREEN Glucocorticoid Receptor Competitor Assay Kit, Red); format: binding
T1 sequence (P04150 1-777): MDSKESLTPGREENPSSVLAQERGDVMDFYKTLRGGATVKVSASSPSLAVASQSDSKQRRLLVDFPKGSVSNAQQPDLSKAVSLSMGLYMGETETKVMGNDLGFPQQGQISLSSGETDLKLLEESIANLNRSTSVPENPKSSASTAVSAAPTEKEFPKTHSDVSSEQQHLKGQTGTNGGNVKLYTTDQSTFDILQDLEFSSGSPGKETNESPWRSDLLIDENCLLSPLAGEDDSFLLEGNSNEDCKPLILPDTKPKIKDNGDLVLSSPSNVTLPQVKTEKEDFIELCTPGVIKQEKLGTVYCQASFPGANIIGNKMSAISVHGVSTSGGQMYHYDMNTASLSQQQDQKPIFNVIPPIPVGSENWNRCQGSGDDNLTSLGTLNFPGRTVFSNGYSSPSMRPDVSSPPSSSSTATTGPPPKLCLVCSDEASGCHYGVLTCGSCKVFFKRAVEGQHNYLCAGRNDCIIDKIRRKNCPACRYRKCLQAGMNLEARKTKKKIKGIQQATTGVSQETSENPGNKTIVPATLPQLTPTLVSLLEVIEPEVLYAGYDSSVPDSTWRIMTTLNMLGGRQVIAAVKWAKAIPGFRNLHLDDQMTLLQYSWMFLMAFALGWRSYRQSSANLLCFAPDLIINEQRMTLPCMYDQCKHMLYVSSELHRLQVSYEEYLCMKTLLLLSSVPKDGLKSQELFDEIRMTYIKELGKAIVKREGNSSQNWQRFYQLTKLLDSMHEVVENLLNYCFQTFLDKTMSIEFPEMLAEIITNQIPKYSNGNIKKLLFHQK
Description: The principle of the assay is to determine the binding affinity of a small molecule compound to glucocorticoid receptor by measuring the decrease in polarization caused by the failure of the fluormone tracer to bind to the glucocorticoid receptor in the presence of a small molecule compound that competitively binds to the glucocorticoid receptor.
The excitation wavelength used for the measurement was 535 nm, and the emission wavelength was 590 nm. This experiment was performed three times using the same method and the average value was calculated. A dose-response curve was derived using the measured values, and the IC50 value was calculated by finding the concentration of the sample corresponding to half of the highest measured value.

C[C@@]1(C(=O)O)CC[C@]2(C)CC[C@]3(C)C4=CC(=O)c5c(cc(O)c(O)c5C=O)[C@]4(C)CC[C@@]3(C)[C@@H]2C1 [demethylzeylasteral, (2R,4aS,6aR,6aS,14aS,14bR)-9-formyl-10,11-dihydroxy-2,4a,6a,6a,14a-pentamethyl-8-oxo-1,3,4,5,6,13,14,14b-octahydropicene-2-carboxylic acid]
intracellular fat accumulation (Oil Red O, O.D. at 515 nm) [1]: reduction of intracellular fat accumulation in a concentration-dependent manner
inhibitory effect on intracellular glucocorticoid receptor activity (luminescence) [2]: inhibited intracellular glucocorticoid receptor activity in a concentration-dependent manner
IC50 [3]: 1190 nM
